Measurements reported in patent US20160084820A1, “METHODS OF TREATING OR PREVENTING PERIODONTITIS AND DISEASES ASSOCIATED WITH PERIODONTITIS” (priority 2010, published 2016).

Legend:
[1] = test system: lipid rafts (GM1 ganglioside); experiment: FRET of TLR2, C5aR, CXCR4 with GM1 lipid raft marker; format: cell-based, mouse; settings: MCD 10 mM for 30 min
Protocol: Upon stimulation for 10 min at 37° C. with P. gingivalis, mouse macrophages were labeled with a mixture of Cy3-conjugated (donor) and Cy5-conjugated (acceptor) antibodies, as indicated in FIG. 4I. In additional experiments shown in FIG. 4I, FITC-labeled P. gingivalis was used as donor and TRITC-labeled receptors served as acceptors. The cells were washed and fixed, and energy transfer between various donor-acceptor pairs was calculated from the increase in donor fluorescence after acceptor photobleaching (REF 9, 14). […] The conjugation of antibodies to Cy3 or Cy5 was performed using kits from Amersham Biosciences.
Supplemental experiments also examined the association of TLR2, C5aR, and CXCR4 with GM1 (lipid raft marker) in P. gingivalis-stimulated macrophages (FIG. 10). Mouse macrophages were pretreated (or not) with methyl-β-cyclodextrin (MCD; 10 mM for 30 min) and then stimulated for 10 min with P. gingivalis (Pg; MOI=10:1) or medium only (med). Fluorescence resonance energy transfer (FRET) between TLR2, C5aR, CXCR4, TLR5, or MHC Class I (Cy3-labeled) and the GM1 ganglioside (Cy5-labeled) was measured from the increase in donor (Cy3) fluorescence after acceptor (Cy5) photobleaching. TLR5 and MHC Class I served as negative controls. […] As expected, max FRET values (38±1.2) were not affected by the cell activation status (med vs. Pg) or the use or not of MCD.

[2] = test system: mouse peritoneal macrophages; experiment: P. gingivalis phagocytosis and receptor expression by flow cytometry; format: cell-based; settings: C5a 50 nM or C3a 200 nM, 30-min incubation
Protocol: First, experiments were performed to determine the effect of C5a (50 nM) or C3a (200 nM) on P. gingivalis phagocytosis by unprimed or IFN-γ-primed mouse peritoneal macrophages (FIG. 6A). The phagocytic index was calculated following a 30-min incubation using the following formula: % positive cells for fluorescently labeled P. gingivalis×MFI/100 (extracellular fluorescence was quenched prior to flow cytometry). Mouse macrophages were incubated at 37° C. for 30 min (B) or 24 hours (C) with medium, C5a (50 nM) only, or P. gingivalis (MOI=10:1) with or without C5a (50 nM). The expression levels of the indicated receptors, which coordinately mediate P. gingivalis uptake, were determined by flow cytometry after cell staining with appropriate fluorescently labeled antibodies (FIGS. 6B and 6C). The 30-min time point was examined to determine possible induced surface expression of preformed receptors from intracellular pools. […] Mouse-specific mAbs to TLR2 (clone 6C2), TLR1 (TR23), CD14 (Sa2-8), CD11b (M1/70), and CD18 (M18/2) were obtained from e-Bioscience.

[3] = test system: phagocytosed P. gingivalis in mouse peritoneal macrophages; format: cell-based, P. gingivalis ATCC 33277; settings: Pg MOI=10:1; C5a 50 nM or C3a 200 nM; 24 or 48 hours post-infection
Protocol: The viability of phagocytosed P. gingivalis was monitored by an antibiotic protection-based intracellular survival assay, as previously described (Wang et al., 2007, J. Immunol., 179:2349-58). Briefly, mouse peritoneal macrophages were allowed to phagocytose P. gingivalis (MOI=10:1; 5×10^6 bacteria and 5×10^5 cells) for […] at 37° C. This was followed by washing to remove extracellular nonadherent bacteria and 1-hour treatment with antibiotics (300 μg/ml gentamicin and 200 μg/ml metronidazole) to eliminate residual or extracellular adherent bacteria. The macrophages were subsequently cultured overnight (for a total of 24 hours) or for 48 hours Immediately after, the macrophages were washed and lysed in sterile distilled water, and viable counts of internalized P. gingivalis were determined by plating serial dilutions of macrophage lysates on blood agar plates subjected to anaerobic culture.
The viability of phagocytosed P. gingivalis was monitored by an antibiotic protection-based intracellular survival assay, as previously described (Wang et al., 2007, J. Immunol., 179:2349-58)). Briefly, mouse peritoneal macrophages were allowed to phagocytose P. gingivalis (at a MOI=10:1; 5×10^6 bacteria and 5×10^5 macrophages) for 30 min at 37° C. This was followed by washing to remove extracellular nonadherent bacteria and 1-hour treatment with antibiotics (300 μg/ml gentamicin and 200 μg/ml metronidazole) to eliminate residual or extracellular adherent bacteria. The macrophages were subsequently cultured overnight for a total of 24 hours Immediately after, the macrophages were washed and lysed in sterile distilled water and viable counts of internalized P. gingivalis were determined by plating serial dilutions of macrophage lysates on blood agar plates subjected to anaerobic culture.

Question: For methyl-β-cyclodextrin [MCD], which “FRET increase between receptors and GM1 in P. gingivalis-stimulated macrophages” value [1] is on record?
Answer: reversal of FRET increase

Question: For “C3a: related anaphylatoxin C3a from R&D Systems”, which P. gingivalis phagocytosis [2] is on record?
Answer: not significantly affected

Question: What about the “intracellular survival of P. gingivalis in macrophages (viable counts of internalized bacteria)” value [3] of the same substance?
Answer: not by the related anaphylatoxin C3a
